# Data: US8658604B2, “Template-fixed beta-hairpin peptidomimetics with protease inhibitory activity” (Polyphor Ltd, priority 2005, dated 2014)
# Where a SMILES comes first, the peptide text is derived from it.
# Assays:
# [1] = biological target: Trypsin, from human pancreas (Homo sapiens, UniProt P07477); test: Enzymatic assay, trypsin; details: at 100 μM
# [2] = biological target: T1, Chymase, from human skin (Homo sapiens, UniProt P23946); test: Enzymatic assay, chymase
# T1 sequence (P23946 22-247): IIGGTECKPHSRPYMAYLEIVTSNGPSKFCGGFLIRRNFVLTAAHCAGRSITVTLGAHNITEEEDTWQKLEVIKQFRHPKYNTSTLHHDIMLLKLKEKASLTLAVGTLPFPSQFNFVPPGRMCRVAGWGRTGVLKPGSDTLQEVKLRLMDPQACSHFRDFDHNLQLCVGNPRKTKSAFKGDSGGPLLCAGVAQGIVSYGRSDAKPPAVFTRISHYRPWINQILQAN
# [3] = biological target: T2, Elastase from human neutrophils (Homo sapiens, UniProt P08246); test: Enzymatic assay, elastase; details: Elastase IC50
# T2 sequence (P08246 30-267): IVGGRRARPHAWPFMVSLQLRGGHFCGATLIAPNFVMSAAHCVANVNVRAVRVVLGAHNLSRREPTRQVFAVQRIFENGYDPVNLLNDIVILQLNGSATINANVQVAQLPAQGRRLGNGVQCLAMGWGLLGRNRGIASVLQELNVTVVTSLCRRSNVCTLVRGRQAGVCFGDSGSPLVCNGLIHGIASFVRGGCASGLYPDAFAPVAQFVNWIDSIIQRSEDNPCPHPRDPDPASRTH
# [4] = biological target: Thrombin, from Human Plasma (Homo sapiens, UniProt P00734); test: Enzymatic assay, thrombin
# [5] = test system: Tryptase, from human lung; test: Enzymatic assay, tryptase; details: at 100 μM
# [6] = biological target: Urokinase from human urine (Homo sapiens, UniProt P00749); test: Enzymatic assay, urokinase
# [7] = biological target: T3, CathepsinG, from human neutrophils (Homo sapiens, UniProt P08311); test: Enzymatic assay, cathepsin G
# T3 sequence (P08311 21-244): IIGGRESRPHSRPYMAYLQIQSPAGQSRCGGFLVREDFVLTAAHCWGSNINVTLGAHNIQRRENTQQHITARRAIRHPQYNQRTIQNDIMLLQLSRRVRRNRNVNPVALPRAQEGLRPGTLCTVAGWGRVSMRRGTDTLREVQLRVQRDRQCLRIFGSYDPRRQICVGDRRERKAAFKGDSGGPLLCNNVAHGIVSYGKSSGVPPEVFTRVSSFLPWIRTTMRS
# [8] = biological target: Chymotrypsin, from human pancreas (Homo sapiens, UniProt P17538); test: Enzymatic assay, chymotrypsin; details: at 100 μM
# Chain of Chymotrypsin, from human pancreas (P17538 19-263): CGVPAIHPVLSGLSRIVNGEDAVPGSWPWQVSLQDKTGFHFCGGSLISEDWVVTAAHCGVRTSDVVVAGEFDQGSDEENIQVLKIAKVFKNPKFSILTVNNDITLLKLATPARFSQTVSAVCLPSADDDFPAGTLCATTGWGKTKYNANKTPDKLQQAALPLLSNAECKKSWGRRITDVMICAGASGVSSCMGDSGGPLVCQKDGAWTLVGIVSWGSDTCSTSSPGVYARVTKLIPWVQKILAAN
# [9] = biological target: Coagulation Factor Xa, from uman plasma (Homo sapiens, UniProt P00742); test: Enzymatic assay, coagulation factor Xa
# Chain of Coagulation Factor Xa, from uman plasma (P00742 235-488 limits assumed): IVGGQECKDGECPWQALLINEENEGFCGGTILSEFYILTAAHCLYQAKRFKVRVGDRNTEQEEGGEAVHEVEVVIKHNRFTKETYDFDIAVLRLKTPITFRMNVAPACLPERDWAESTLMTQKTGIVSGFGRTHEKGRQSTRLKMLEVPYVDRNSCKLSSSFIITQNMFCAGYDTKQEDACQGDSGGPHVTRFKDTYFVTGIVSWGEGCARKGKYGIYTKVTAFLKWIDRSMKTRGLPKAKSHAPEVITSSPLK
# Chain of Coagulation Factor Xa, from uman plasma (P00742 41-179 limits assumed): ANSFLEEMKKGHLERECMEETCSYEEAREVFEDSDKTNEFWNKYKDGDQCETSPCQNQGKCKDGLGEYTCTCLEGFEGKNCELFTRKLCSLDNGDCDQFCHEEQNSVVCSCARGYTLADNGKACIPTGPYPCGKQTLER
Structure (SMILES),Trypsin at 100 μM % [1] [%],Chymase at 100 μM % [2] [%],IC50 [3] [nM],Thrombin at 100 μM % [4] [%],Tryptase At 100 μM % [5] [%],Urokinase at 100 μM % [6] [%],Cathepsin G at 100 μM % [7] [at 100%],Chymotrypsin at 100 μM % [8] [%],FXa at 100 μM % [9] [%],IC50 ([7]; Cathepsin G IC50) [nM]
"CCCCCCCC[C@@H]1NC(=O)[C@@H]2CCCN2C(=O)[C@H]2CCCN2C(=O)[C@H](CCC(N)=O)NC(=O)[C@@H]2CSSC[C@H](NC1=O)C(=O)N[C@@H]([C@@H](C)O)C(=O)N[C@@H](C)C(=O)N[C@@H](CO)C(=O)N[C@@H](CCCCCCCC)C(=O)N1CCC[C@H]1C(=O)N1CCC[C@H]1C(=O)N[C@@H](CCC(N)=O)C(=O)N2 [Ex. 148] (HELM PEPTIDE1{[CCCCCCCC[C@H](N[*:1])C(=O)[*:2]].C.T.A.S.[CCCCCCCC[C@H](N[*:1])C(=O)[*:2]].P.P.Q.C.Q.[dP].P}$PEPTIDE1,PEPTIDE1,2:R3-10:R3|PEPTIDE1,PEPTIDE1,1:R1-13:R2$$$V2.0)",9,7,11,32,30,12,52,91,8,–
"CCCCCCCC[C@@H]1NC(=O)[C@H](CO)NC(=O)[C@H](C)NC(=O)[C@H]([C@@H](C)O)NC(=O)[C@@H]2CSSC[C@H](NC(=O)[C@H](CCC(N)=O)NC(=O)[C@@H]3CCCN3C(=O)[C@@H]3CCCN3C1=O)C(=O)N[C@@H](CCC(N)=O)C(=O)N1CCC[C@@H]1C(=O)N1CCC[C@H]1C(=O)N[C@@H](CCc1ccccc1)C(=O)N2 [Ex. 153] (HELM PEPTIDE1{[O=C([C@H](CCc1ccccc1)N[*:1])[*:2]].C.T.A.S.[CCCCCCCC[C@H](N[*:1])C(=O)[*:2]].P.P.Q.C.Q.[dP].P}$PEPTIDE1,PEPTIDE1,2:R3-10:R3|PEPTIDE1,PEPTIDE1,1:R1-13:R2$$$V2.0)",8,0,8.5,16,9,16,56,84,11,–
"CCCCCCCC[C@@H]1NC(=O)[C@@H]2CCCN2C(=O)[C@H]2CCCN2C(=O)[C@H](Cc2ccc(O)cc2)NC(=O)[C@H]([C@@H](C)O)NC(=O)[C@H](CCC(N)=O)NC(=O)[C@@H]2CCCN2C(=O)[C@@H]2CCCN2C(=O)[C@H]([C@@H](C)CC)NC(=O)[C@H](CO)NC(=O)[C@H](C)NC(=O)[C@H]([C@@H](C)O)NC(=O)[C@H](CCC(N)=O)NC1=O [Ex. 154] (HELM PEPTIDE1{[CCCCCCCC[C@H](N[*:1])C(=O)[*:2]].Q.T.A.S.I.P.P.Q.T.Y.[dP].P}$PEPTIDE1,PEPTIDE1,1:R1-13:R2$$$V2.0)",0,0,8.3,7,15,1,27,4,0,–
"C[C@@H]1NC(=O)[C@H]([C@@H](C)O)NC(=O)[C@@H]2CSSC[C@H](NC(=O)[C@H](CCC(N)=O)NC(=O)[C@@H]3CCCN3C(=O)[C@@H]3CCCN3C(=O)[C@H](CC3CCCCC3)NC(=O)[C@H](CO)NC1=O)C(=O)N[C@@H](Cc1ccccc1)C(=O)N1CCC[C@@H]1C(=O)N1CCC[C@H]1C(=O)N[C@@H](CCc1ccccc1)C(=O)N2 [Ex. 155] (HELM PEPTIDE1{[O=C([C@H](CCc1ccccc1)N[*:1])[*:2]].C.T.A.S.[Cha].P.P.Q.C.F.[dP].P}$PEPTIDE1,PEPTIDE1,2:R3-10:R3|PEPTIDE1,PEPTIDE1,1:R1-13:R2$$$V2.0)",18,3,8.2,19,30,12,52,83,9,–
"CCCCCCCC[C@@H]1NC(=O)[C@@H]2CCCN2C(=O)[C@H]2CCCN2C(=O)[C@H](Cc2ccc(O)cc2)NC(=O)[C@H](CCCCN)NC(=O)[C@H](CCC(N)=O)NC(=O)[C@@H]2CCCN2C(=O)[C@@H]2CCCN2C(=O)[C@H]([C@@H](C)CC)NC(=O)[C@H](CO)NC(=O)[C@H](C)NC(=O)[C@H]([C@@H](C)O)NC(=O)[C@H](CCC(=O)O)NC1=O [Ex. 156] (HELM PEPTIDE1{[CCCCCCCC[C@H](N[*:1])C(=O)[*:2]].E.T.A.S.I.P.P.Q.K.Y.[dP].P}$PEPTIDE1,PEPTIDE1,1:R1-13:R2$$$V2.0)",0,0,7.5,17,15,7,46,5,0,–
"CCCCCCCC[C@@H]1NC(=O)[C@H](CO)NC(=O)[C@H](C)NC(=O)[C@H]([C@@H](C)O)NC(=O)[C@@H]2CSSC[C@H](NC(=O)[C@H](CCC(N)=O)NC(=O)[C@@H]3CCCN3C(=O)[C@@H]3CCCN3C1=O)C(=O)N[C@@H](Cc1ccc(O)cc1)C(=O)N1CCC[C@@H]1C(=O)N[C@@H](CCC(N)=O)C(=O)N[C@@H](CCCC)C(=O)N2 [compound 169] (HELM PEPTIDE1{[Nle].C.T.A.S.[CCCCCCCC[C@H](N[*:1])C(=O)[*:2]].P.P.Q.C.Y.[dP].Q}$PEPTIDE1,PEPTIDE1,2:R3-10:R3|PEPTIDE1,PEPTIDE1,1:R1-13:R2$$$V2.0)",10.8,0,18,20.6,4.2,10.4,–,79.6,13.3,20300
"CC[C@H](C)[C@@H]1NC(=O)[C@H](CO)NC(=O)[C@H](C)NC(=O)[C@H]([C@@H](C)O)NC(=O)[C@@H]2CSSC[C@H](NC(=O)[C@H](CCC(N)=O)NC(=O)[C@@H]3CCCN3C(=O)[C@@H]3CCCN3C1=O)C(=O)N[C@@H](Cc1ccc(O)cc1)C(=O)N[C@H](CCCCN)C(=O)N[C@@H](CCC(=O)O)C(=O)N[C@@H](CCc1ccccc1)C(=O)N2 [compound 174] (HELM PEPTIDE1{[O=C([C@H](CCc1ccccc1)N[*:1])[*:2]].C.T.A.S.I.P.P.Q.C.Y.[dK].E}$PEPTIDE1,PEPTIDE1,2:R3-10:R3|PEPTIDE1,PEPTIDE1,1:R1-13:R2$$$V2.0)",7,0,12,11,10,1,56,85,3,–
"CCCCCCCC[C@@H]1NC(=O)[C@H](CCC(N)=O)NC(=O)[C@H]2CCCN2C(=O)[C@H](Cc2ccc(O)cc2)NC(=O)[C@@H]2CSSC[C@H](NC1=O)C(=O)N[C@@H]([C@@H](C)O)C(=O)N[C@@H](C)C(=O)N[C@@H](CO)C(=O)N[C@@H]([C@@H](C)CC)C(=O)N1CCC[C@H]1C(=O)N1CCC[C@H]1C(=O)N[C@@H](CCC(N)=O)C(=O)N2 [compound 177] (HELM PEPTIDE1{[CCCCCCCC[C@H](N[*:1])C(=O)[*:2]].C.T.A.S.I.P.P.Q.C.Y.[dP].Q}$PEPTIDE1,PEPTIDE1,2:R3-10:R3|PEPTIDE1,PEPTIDE1,1:R1-13:R2$$$V2.0)",5,3,7,17,15,12,54,86,7,–
